Assay results as given in PubChem BioAssay AID256 (DTP/NCI, 2004).
Several values for one entry are separate records, joined by “and”; a condition that tells them apart may be missing. Identical values can stand only once. Toxic doses and inconclusive results are not listed.

Test system: CD2F1 mice, L1210 leukemia ip, survival T/C
Assay: NCI In Vivo Anticancer Drug Screen. Data for tumor model L1210 Leukemia (intraperitoneal) in CD2F1 (CDF1) mice
Conditions: higher = longer survival
Procedure, shortened: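 Transplantable tumor in mice; compound-treated vs vehicle-treated groups. Read-out = treated/control ratio of the measured endpoint.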

[1] = endpoint: mean survival time, dose: 100.0 mg/kg/injection, schedule: Q01DX001 (ip), vehicle: saline
[2] = endpoint: mean survival time, dose: 100.0 mg/kg/injection, schedule: Q01DX009 (ip), vehicle: saline
[3] = endpoint: mean survival time, dose: 200.0 mg/kg/injection, schedule: Q01DX001 (ip), vehicle: saline
[4] = endpoint: mean survival time, dose: 200.0 mg/kg/injection, schedule: Q01DX009 (ip), vehicle: saline
[5] = endpoint: mean survival time, dose: 400.0 mg/kg/injection, schedule: Q01DX001 (ip), vehicle: saline
[6] = endpoint: mean survival time, dose: 400.0 mg/kg/injection, schedule: Q01DX009 (ip), vehicle: saline
[7] = endpoint: mean survival time, dose: 100.0 mg/kg/injection, schedule: Q01DX009 (ip), vehicle: saline with Tween-80
[8] = endpoint: mean survival time, dose: 200.0 mg/kg/injection, schedule: Q01DX009 (ip), vehicle: saline with Tween-80
[9] = endpoint: mean survival time, dose: 100.0 mg/kg/injection, schedule: Q01DX001 (ip), vehicle: saline with Tween-80
[10] = endpoint: mean survival time, dose: 200.0 mg/kg/injection, schedule: Q01DX001 (ip), vehicle: saline with Tween-80
[11] = endpoint: mean survival time, dose: 50.0 mg/kg/injection, schedule: Q01DX009 (ip), vehicle: saline with Tween-80

COc1ccccc1NC(=O)CSC(N)=O
T/C (endpoint: mean survival time, dose: 50.0 mg/kg/injection, schedule: Q01DX001 (ip), vehicle: saline): 98 % of control | T/C [1]: 97 % of control | T/C [2]: 102 % of control | T/C (endpoint: mean survival time, dose: 100.0 mg/kg/injection, schedule: Q04DX003 (ip), vehicle: saline): 94 % of control | T/C [3]: 103 % of control | T/C [4]: 93 % of control | T/C (endpoint: mean survival time, dose: 200.0 mg/kg/injection, schedule: Q04DX003 (ip), vehicle: saline): 91 % of control | T/C [5]: 97 % of control | T/C [6]: 96 % of control | T/C (endpoint: mean survival time, dose: 400.0 mg/kg/injection, schedule: Q04DX003 (ip), vehicle: saline): 91 % of control

CCOC(=O)Nc1cc(F)cc(C(F)(F)F)c1F
T/C [7]: 97 % of control | T/C [8]: 97 % of control | T/C (endpoint: mean survival time, dose: 400.0 mg/kg/injection, schedule: Q01DX009 (ip), vehicle: saline with Tween-80): 109 % of control

C=C1C(=O)O[C@@H]2C[C@@H](C)[C@@H]3[C@@H](OC4OC(COC(C)=O)C(O)C(O)C4O)CC(=O)[C@@]3(C)C[C@H]12 (some centres not stated)
T/C (endpoint: mean survival time, dose: 35.0 mg/kg/injection, schedule: Q01DX009 (ip), vehicle: saline): 108 % of control | T/C (endpoint: mean survival time, dose: 50.0 mg/kg/injection, schedule: Q01DX009 (ip), vehicle: saline): 95 % of control | T/C (endpoint: mean survival time, dose: 75.0 mg/kg/injection, schedule: Q01DX009 (ip), vehicle: saline): 102 % of control

C=C1C(=O)OCC2C(C(=O)O)=CC3C(C)C(C)=CC123 (configuration not stated)
T/C (endpoint: mean survival time, dose: 20.0 mg/kg/injection, schedule: Q04DX003 (ip), vehicle: saline with Tween-80): 109 % of control | T/C (endpoint: mean survival time, dose: 40.0 mg/kg/injection, schedule: Q04DX003 (ip), vehicle: saline with Tween-80): 121 % of control | T/C (endpoint: mean survival time, dose: 80.0 mg/kg/injection, schedule: Q04DX003 (ip), vehicle: saline with Tween-80): 120 % of control

CC(O)C1OC(n2cnc3c(=O)[nH]cnc32)C(O)C1O (configuration not stated)
T/C (endpoint: mean survival time, dose: 12.5 mg/kg/injection, schedule: Q01DX005 (ip), vehicle: distilled water + Tween-80): 114 % of control | T/C (endpoint: mean survival time, dose: 25.0 mg/kg/injection, schedule: Q01DX005 (ip), vehicle: distilled water + Tween-80): 112 % of control | T/C (endpoint: mean survival time, dose: 50.0 mg/kg/injection, schedule: Q01DX005 (ip), vehicle: distilled water + Tween-80): 104 % of control | T/C (endpoint: mean survival time, dose: 100.0 mg/kg/injection, schedule: Q01DX005 (ip), vehicle: distilled water + Tween-80): 102 % of control | T/C (endpoint: mean survival time, dose: 200.0 mg/kg/injection, schedule: Q01DX005 (ip), vehicle: distilled water + Tween-80): 100 % of control | T/C (endpoint: median survival time, dose: 8.75 mg/kg/injection, schedule: Q01DX005 (ip), vehicle: distilled water + Tween-80): 108 % of control | T/C (endpoint: median survival time, dose: 12.5 mg/kg/injection, schedule: Q01DX005 (ip), vehicle: water): 97 % of control | T/C (endpoint: median survival time, dose: 17.5 mg/kg/injection, schedule: Q01DX005 (ip), vehicle: distilled water + Tween-80): 108 % of control | T/C (endpoint: median survival time, dose: 25.0 mg/kg/injection, schedule: Q01DX005 (ip), vehicle: saline with Tween-80): 98 % of control | T/C (endpoint: median survival time, dose: 25.0 mg/kg/injection, schedule: Q01DX005 (ip), vehicle: water): 97 % of control | T/C (endpoint: median survival time, dose: 35.0 mg/kg/injection, schedule: Q01DX005 (ip), vehicle: distilled water + Tween-80): 102 % of control | T/C (endpoint: median survival time, dose: 50.0 mg/kg/injection, schedule: Q01DX005 (ip), vehicle: saline with Tween-80): 107 % of control | T/C (endpoint: median survival time, dose: 50.0 mg/kg/injection, schedule: Q01DX005 (ip), vehicle: water): 109 % of control | T/C (endpoint: median survival time, dose: 70.0 mg/kg/injection, schedule: Q01DX005 (ip), vehicle: distilled water + Tween-80): 97 % of control | T/C (endpoint: median survival time, dose: 100.0 mg/kg/injection, schedule: Q01DX005 (ip), vehicle: saline with Tween-80): 98 % of control | T/C (endpoint: median survival time, dose: 100.0 mg/kg/injection, schedule: Q01DX005 (ip), vehicle: water): 98 % of control | T/C (endpoint: median survival time, dose: 140.0 mg/kg/injection, schedule: Q01DX005 (ip), vehicle: distilled water + Tween-80): 97 % of control | T/C (endpoint: median survival time, dose: 200.0 mg/kg/injection, schedule: Q01DX005 (ip), vehicle: saline with Tween-80): 109 % of control | T/C (endpoint: median survival time, dose: 200.0 mg/kg/injection, schedule: Q01DX005 (ip), vehicle: water): 102 % of control | T/C (endpoint: median survival time, dose: 400.0 mg/kg/injection, schedule: Q01DX005 (ip), vehicle: saline with Tween-80): 101 % of control

CCOC(=O)/C=C/C(=O)O.[Cu+2]
T/C (endpoint: mean survival time, dose: 1.56 mg/kg/injection, schedule: Q04DX003 (ip), vehicle: saline): 108 % of control | T/C (endpoint: mean survival time, dose: 3.12 mg/kg/injection, schedule: Q04DX003 (ip), vehicle: saline): 108 % of control | T/C (endpoint: mean survival time, dose: 6.25 mg/kg/injection, schedule: Q04DX003 (ip), vehicle: saline): 104 % of control

CCCCCCCCCCCCCCCCCCCOc1ccc(OCCCCCCCCCCCCCCCC)cc1
T/C [9]: 100 % of control | T/C [10]: 96 % of control | T/C (endpoint: mean survival time, dose: 400.0 mg/kg/injection, schedule: Q01DX001 (ip), vehicle: saline with Tween-80): 88 % of control

O=C1CCC(=O)N1C1C=CC=CC=C1
T/C (endpoint: mean survival time, dose: 50.0 mg/kg/injection, schedule: Q04DX003 (ip), vehicle: acetone): 98 % of control | T/C (endpoint: mean survival time, dose: 100.0 mg/kg/injection, schedule: Q04DX003 (ip), vehicle: acetone): 107 % of control

COC(=O)c1ccncc1
T/C [2]: 102 % of control | T/C [4]: 108 % of control | T/C [6]: 100 % of control

CC1(CO)C2CCC(CC2)C1CO (configuration not stated)
T/C [11]: 102 % of control | T/C [9]: 95 % of control | T/C [7]: 96 % of control | T/C [10]: 94 % of control | T/C [8]: 96 % of control

O=NN(CCCl)C(=O)NC1C(O)C(O)C(O)C(O)C1O (configuration not stated)
T/C (endpoint: mean survival time, dose: 13.0 mg/kg/injection, schedule: Q01DX001 (ip), vehicle: saline): 167 % of control and 220 % of control | T/C (endpoint: mean survival time, dose: 20.0 mg/kg/injection, schedule: Q01DX001 (ip), vehicle: saline): 173 % of control and 227 % of control | T/C (endpoint: mean survival time, dose: 25.0 mg/kg/injection, schedule: Q01DX001 (ip), vehicle: saline): 255 % of control | T/C (endpoint: mean survival time, dose: 30.0 mg/kg/injection, schedule: Q01DX001 (ip), vehicle: saline): 271 % of control and 282 % of control | T/C (endpoint: mean survival time, dose: 44.0 mg/kg/injection, schedule: Q01DX001 (ip), vehicle: saline): 197 % of control

CNCC(=O)NC(CO)C(=O)NC(CO)C(=O)NC1C(C(N)=O)OC(n2ccc(N)nc2=O)C(O)C1O (configuration not stated)
T/C (endpoint: mean survival time, dose: 0.19 mg/kg/injection, schedule: Q01DX005 (ip), vehicle: water): 98 % of control | T/C (endpoint: mean survival time, dose: 0.38 mg/kg/injection, schedule: Q01DX005 (ip), vehicle: water): 104 % of control | T/C (endpoint: mean survival time, dose: 0.75 mg/kg/injection, schedule: Q01DX005 (ip), vehicle: water): 98 % of control

OC(CN1CCOCC1)CN1CCOCC1
T/C [1]: 104 % of control | T/C [3]: 104 % of control | T/C [5]: 103 % of control

O=C1NC(O)c2ccccc2O1 (configuration not stated)
T/C (endpoint: mean survival time, dose: 12.5 mg/kg/injection, schedule: Q01DX009 (ip), vehicle: saline with Tween-80): 101 % of control | T/C (endpoint: mean survival time, dose: 12.5 mg/kg/injection, schedule: Q01DX009 (ip), vehicle: suspension in saline): 95 % of control | T/C (endpoint: mean survival time, dose: 25.0 mg/kg/injection, schedule: Q01DX009 (ip), vehicle: saline with Tween-80): 96 % of control | T/C (endpoint: mean survival time, dose: 25.0 mg/kg/injection, schedule: Q01DX009 (ip), vehicle: suspension in saline): 97 % of control | T/C [11]: 98 % of control | T/C (endpoint: mean survival time, dose: 50.0 mg/kg/injection, schedule: Q01DX009 (ip), vehicle: suspension in saline): 104 % of control | T/C [7]: 101 % of control and 108 % of control | T/C (endpoint: mean survival time, dose: 100.0 mg/kg/injection, schedule: Q01DX009 (ip), vehicle: suspension in saline): 101 % of control | T/C [8]: 115 % of control and 106 % of control | T/C (endpoint: mean survival time, dose: 200.0 mg/kg/injection, schedule: Q01DX009 (ip), vehicle: suspension in saline): 119 % of control | T/C (endpoint: mean survival time, dose: 400.0 mg/kg/injection, schedule: Q01DX009 (ip), vehicle: suspension in saline): 95 % of control

CO[C@H](/C(C)=C/C=C/C(C)=C/c1coc(C)n1)[C@H](C)[C@H]1C[C@@H](O)[C@@]2(C)O[C@H]2/C=C/[C@@H](C)[C@@H]2C[C@@H](CC(=O)O2)C[C@H]2O[C@@H]2C(=O)O1
T/C (endpoint: median survival time, dose: 0.5 mg/kg/injection, schedule: Q01DX009 (ip), vehicle: Klucel (hydroxypropylcellulose) (HPC)): 112 % of control | T/C (endpoint: median survival time, dose: 20.0 micrograms/kg/injection, schedule: Q01DX009 (ip), vehicle: Klucel (hydroxypropylcellulose) (HPC)): 114 % of control | T/C (endpoint: median survival time, dose: 40.0 micrograms/kg/injection, schedule: Q01DX009 (ip), vehicle: Klucel (hydroxypropylcellulose) (HPC)): 123 % of control and 104 % of control | T/C (endpoint: median survival time, dose: 80.0 micrograms/kg/injection, schedule: Q01DX009 (ip), vehicle: Klucel (hydroxypropylcellulose) (HPC)): 116 % of control | T/C (endpoint: median survival time, dose: 160.0 micrograms/kg/injection, schedule: Q01DX009 (ip), vehicle: Klucel (hydroxypropylcellulose) (HPC)): 114 % of control
